Measured values reported in article PMC9063842, “A GH115 α-glucuronidase structure reveals dimerization-mediated substrate binding and a proton wire potentially important for catalysis” (Acta Crystallographica. Section D, Structural Biology, 2022).

Columns and labels:
[1] = biological target: T1, wtsAgu115A (uncultured bacterium, UniProt A0ACD6BAS3); assay: X-ray crystal structure, crystal soaking; format: binding; conditions: 2.65 A; 0.2 M CaCl2, HEPES pH 7.5, 28% PEG 400; five of six xylose units visible; active site at dimer interface; Ca2+ near site; wild type inferred (Asp303 side chain H-bonds the ligand)
T1 construct: mature protein without 19-residue signal peptide, pET-28a (NcoI/XhoI), His-tag purified, E. coli BL21(DE3) pLysS; homodimer

[2] = biological target: the molecule itself; assay: SEC; analytical gel filtration, HiLoad 16/60 Superdex G200, 10 mM sodium acetate, 150 mM NaCl pH 6, 0.5 ml/min; standards aldolase (158 kDa), conalbumin (75 kDa), ovalbumin (44 kDa)

OC1OC[C@@H](O[C@@H]2OC[C@@H](O[C@@H]3OC[C@@H](O[C@@H]4OC[C@@H](O[C@@H]5OC[C@@H](O[C@@H]6OC[C@@H](O)[C@H](O)[C@H]6O)[C@H](O)[C@H]5O)[C@H](O)[C@H]4O)[C@H](O)[C@H]3O)[C@H](O)[C@H]2O)[C@H](O)[C@H]1O (some centres unmarked) [xylohexaose]
X-ray crystal structure, crystal soaking [1]: five β-1,4-linked D-xylopyranose moieties was observed in the crystal structure of wtsAgu115A soaked with xylohexaose

B1: wtsAgu115A (enzyme)
chain: AGDNKGITYEELNPERFTLLEKGTPTNILIDENEDQGVMIAATNLSEDFGRVSGTNAPLIFLPDNERLIIVGTLESRYIKELTENRKIKGDELKGKNEKYLMTVVDNPLPGVKEALIIAGSDKRGAIYGIYELSEQIGVSPWYDWADVPVKPQQNLSIERGSYTADEPAVTYRGIFLNDEAPALTSWVENTYGTKYGDHRFYSRVFELILRLRGNFLWPAMWDWSFYGDDPLNSKTADTMGIIMGTSHHEPMARNHQEWARNRDKYGVWDYTSNQEVIDQFFREGIERVKDTDDLITIGMRGDGDTPMPMGVKEGEDHLPSDEDNMRLLERIIKNQREIIGDVTGESPEKTPQVWAIYKEVQRYFDLGLRPPEDVIILLSDDNWGNVRRLPTEEERDHPGGWGMYYHFDYVGAPRSSKWLNISPIQNIWEQMQLTYDYGVDELWVANVGDLKPMEYPITLFLDMAWDPTRFNAENLLDHTRSFAAQQFGEDQADEAARIINLYSKYNGRVTPEMLDRNTYNLESGEWKKVSDEYIKLEAEALRQYLTLEPEQRDAYKQLILYPVQAMANLYEMYYSQAMNHKLYRENNPMANYWADRVEETFNRDAELSHDYNKVMANGKWDGMMTQKKIGYRSWNDNFPADTLPQIFRIENPEEATGGYVFTARDGVVVIEAEHYFEAKDAEEAKWTVIPYMGRTLSSIALMPYTKEVEGASLSYRMQIPDEVSEVKVHVVVKSTLPFHDPKGHEYRVGFEGGSKEIVNFNWNLNEEPENIYSVFYPTVASRVVKKDVTLDLHDTDDGFYTLTLEPLDPGIVFQKIVVDFGGYEESRLFMEESPNKRIEIE
stoichiometry N [2]: 2
